Data as given in ChEMBL document CHEMBL1133935, “A novel phosphotyrosine mimetic 4'-carboxymethyloxy-3'-phosphonophenylalanine (Cpp): exploitation in the design of nonpeptide inhibitors of pp60(Src) SH2 domain” (Bioorg Med Chem Lett, 2001).
pIC50: −log10 of the molar value.

Key:
[1] = target: Tyrosine-protein kinase Yes (Homo sapiens, UniProt P07947); test: Inhibition of binding to Yes SH2 domain
[2] = target: Proto-oncogene tyrosine-protein kinase Src (Homo sapiens, UniProt P12931); test: Inhibition of binding to Src SH2 domain
[3] = target: T1, Tyrosine-protein kinase ZAP-70 (Homo sapiens, UniProt P43403); test: Inhibition of binding to Zap70 protein kinase
T1 sequence (P43403 whole entry): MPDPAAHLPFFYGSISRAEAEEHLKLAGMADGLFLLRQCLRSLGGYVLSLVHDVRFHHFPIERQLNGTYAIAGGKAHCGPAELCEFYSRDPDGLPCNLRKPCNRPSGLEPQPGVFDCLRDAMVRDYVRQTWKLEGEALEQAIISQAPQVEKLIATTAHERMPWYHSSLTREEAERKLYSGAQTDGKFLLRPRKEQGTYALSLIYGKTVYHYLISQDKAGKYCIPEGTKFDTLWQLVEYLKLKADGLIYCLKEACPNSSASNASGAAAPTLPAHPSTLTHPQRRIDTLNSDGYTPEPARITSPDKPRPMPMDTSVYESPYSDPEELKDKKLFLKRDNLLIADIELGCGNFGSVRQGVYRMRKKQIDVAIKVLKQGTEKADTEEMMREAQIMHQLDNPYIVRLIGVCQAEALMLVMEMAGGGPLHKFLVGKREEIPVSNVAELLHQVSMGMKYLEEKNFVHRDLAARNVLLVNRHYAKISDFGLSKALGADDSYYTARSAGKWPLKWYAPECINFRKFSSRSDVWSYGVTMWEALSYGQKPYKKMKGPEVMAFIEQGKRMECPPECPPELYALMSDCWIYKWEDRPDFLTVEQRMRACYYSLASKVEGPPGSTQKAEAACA

Oryctolagus cuniculus = species: Oryctolagus cuniculus; test: Inhibition of rabbit osteoclast-mediated resorption of dentine at 100 uM; 0-35% inhibition; type: functional

Sequence of Tyrosine-protein kinase Yes (P07947 whole entry, the tested form may be a part): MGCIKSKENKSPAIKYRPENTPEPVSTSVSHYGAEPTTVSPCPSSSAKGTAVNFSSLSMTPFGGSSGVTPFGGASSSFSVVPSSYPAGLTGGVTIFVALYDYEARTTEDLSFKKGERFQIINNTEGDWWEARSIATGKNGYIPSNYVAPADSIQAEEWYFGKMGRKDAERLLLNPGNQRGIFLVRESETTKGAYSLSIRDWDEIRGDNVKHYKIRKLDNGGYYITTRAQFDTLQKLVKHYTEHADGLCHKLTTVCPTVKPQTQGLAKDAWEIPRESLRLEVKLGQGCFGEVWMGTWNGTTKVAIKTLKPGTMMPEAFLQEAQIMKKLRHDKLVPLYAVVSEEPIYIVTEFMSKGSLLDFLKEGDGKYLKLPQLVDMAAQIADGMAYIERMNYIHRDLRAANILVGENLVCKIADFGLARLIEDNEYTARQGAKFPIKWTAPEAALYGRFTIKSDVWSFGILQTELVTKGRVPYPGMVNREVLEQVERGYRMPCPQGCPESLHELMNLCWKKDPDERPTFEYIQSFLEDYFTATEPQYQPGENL
Sequence of Proto-oncogene tyrosine-protein kinase Src (P12931 2-536 limits assumed): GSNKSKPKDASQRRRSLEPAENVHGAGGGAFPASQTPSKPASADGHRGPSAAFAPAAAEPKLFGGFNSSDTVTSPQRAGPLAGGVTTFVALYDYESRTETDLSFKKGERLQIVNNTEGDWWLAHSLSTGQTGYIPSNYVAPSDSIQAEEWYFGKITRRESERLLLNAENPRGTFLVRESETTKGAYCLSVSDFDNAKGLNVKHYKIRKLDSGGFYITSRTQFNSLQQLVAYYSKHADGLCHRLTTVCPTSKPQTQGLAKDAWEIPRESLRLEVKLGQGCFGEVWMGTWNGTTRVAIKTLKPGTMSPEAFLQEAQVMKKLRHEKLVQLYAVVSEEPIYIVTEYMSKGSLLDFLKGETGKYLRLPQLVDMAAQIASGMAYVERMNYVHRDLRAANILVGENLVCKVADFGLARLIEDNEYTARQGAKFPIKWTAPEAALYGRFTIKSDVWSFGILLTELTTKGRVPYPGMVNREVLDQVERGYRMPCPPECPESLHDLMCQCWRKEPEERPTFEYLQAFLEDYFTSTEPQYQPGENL

SMILES	pIC50 [1]	pIC50 [2]	pIC50 [3]	Inhibition (Oryctolagus cuniculus)
CCOP(=O)(O)c1cc(CC(NC(C)=O)C(=O)N[C@@H](C)c2ccc(OCC3CCCCC3)c(C(N)=O)c2)ccc1OCC(=O)O (some centres undefined)	3.81	5.14	< 3.30	–
CC(C)(NC(=O)CCc1ccc(OCn2cnnn2)c(P(=O)(O)O)c1)c1ccc(OCC2CCCCC2)c(C(N)=O)c1	< 3.30	< 3.30	< 3.30	–
CC(C)(NC(=O)CCc1ccc(OS(=O)(=O)C(F)(F)F)c(P(=O)(O)O)c1)c1ccc(OCC2CCCCC2)c(C(N)=O)c1	< 3.30	< 3.30	< 3.30	–
CC(C)(NC(=O)CCc1ccc(OCC(=O)O)c(P(=O)(O)O)c1)c1ccc(OCC2CCCCC2)c(C(N)=O)c1	3.52	4.45	< 3.30	–
CC(=O)NC(Cc1ccc(OCC(=O)O)cc1)C(=O)N[C@@H](C)c1ccc(OCC2CCCCC2)c(C(N)=O)c1 (some centres undefined)	< 3.30	3.43	–	–
CC(C)(NC(=O)CCc1ccc(O)c(P(=O)(O)O)c1)c1ccc(OCC2CCCCC2)c(C(N)=O)c1	< 3.30	< 3.30	< 3.30	–
CC(=O)NC(Cc1ccc(OP(=O)(O)O)cc1)C(=O)N[C@@H](C)c1ccc(OCC2CCCCC2)c(C(N)=O)c1 (some centres undefined)	–	–	3.36	–

Now from value to molecule, other results behind:

pIC50 [1]	pIC50 [2]	pIC50 [3]	SMILES	Inhibition (Oryctolagus cuniculus)
< 3.30	3.42	< 3.30	CC(=O)NC(Cc1ccc(OCC(=O)O)c(P(=O)(O)O)c1)C(=O)NCc1ccc(OCC2CCCCC2)c(C(N)=O)c1 (centres undefined)	–
–	5.49	< 3.30	CC(=O)NC(Cc1ccc(OCC(=O)O)c(P(=O)(O)O)c1)C(=O)NC(C)(C)c1ccc(OCC2CCCCC2)c(C(N)=O)c1 (centres undefined)	–
< 3.30	< 3.30	< 3.30	CC(=O)NC(Cc1ccc(OCC(=O)O)c(P(=O)(O)O)c1)C(=O)Nc1ccc(OCC2CCCCC2)c(C(N)=O)c1 (centres undefined)	–
3.96	–	< 3.30	CC(=O)NC(Cc1ccc(OCC(=O)O)c(P(=O)(O)O)c1)C(=O)N[C@@H](C)c1ccc(OCC2CCCCC2)c(C(N)=O)c1 (some centres undefined)	0%
